{"source": "ChEMBL document CHEMBL5260795", "about": "“Antifungal potential of marine natural products” (Eur J Med Chem, 2017)", "key": {"Candida albicans [1]": {"test_system": "Candida albicans", "test": "Antifungal activity against Candida albicans", "type": "functional, organism-based"}, "[2]": {"test": "Inhibition of Candida albicans CaCdr1p transporter assessed as reduction in rhodamine 6G efflux"}, "[3]": {"test": "Inhibition of Candida albicans CaCdr1p transporter ATPase activity"}, "Rhizoctonia solani [4]": {"test_system": "Rhizoctonia solani", "test": "Antifungal activity against Rhizoctonia solani incubated for 48 hrs by standard broth dilution method", "type": "functional"}, "Phytophthora capsici": {"test_system": "Phytophthora capsici", "test": "Antifungal activity against Phytophthora capsici incubated for 48 hrs by standard broth dilution method", "type": "functional"}, "Botrytis cinerea [5]": {"test_system": "Botrytis cinerea", "test": "Antifungal activity against Botrytis cinerea incubated for 48 hrs by standard broth dilution method", "type": "functional"}, "Colletotrichum acutatum [6]": {"test_system": "Colletotrichum acutatum", "test": "Antifungal activity against Colletotrichum acutatum incubated for 48 hrs by standard broth dilution method", "type": "functional"}, "Aspergillus niger [7]": {"test_system": "Aspergillus niger", "test": "Antimicrobial activity against Aspergillus niger incubated for 72 hrs by standard broth dilution method", "type": "functional"}, "Botrytis cinerea [8]": {"test_system": "Botrytis cinerea", "test": "Antimicrobial activity against Botrytis cinerea incubated for 72 hrs by standard broth dilution method", "type": "functional"}, "Colletotrichum acutatum [9]": {"test_system": "Colletotrichum acutatum", "test": "Antimicrobial activity against Colletotrichum acutatum incubated for 72 hrs by standard broth dilution method", "type": "functional"}, "Rhizoctonia solani [10]": {"test_system": "Rhizoctonia solani", "test": "Antimicrobial activity against Rhizoctonia solani incubated for 72 hrs by standard broth dilution method", "type": "functional"}, "Candida albicans [11]": {"test_system": "Candida albicans", "test": "Antimicrobial activity against Candida albicans incubated for 72 hrs by standard broth dilution method", "type": "functional"}, "Saccharomyces cerevisiae [12]": {"test_system": "Saccharomyces cerevisiae", "test": "Antimicrobial activity against Saccharomyces cerevisiae incubated for 72 hrs by standard broth dilution method", "type": "functional"}, "Candida albicans [13]": {"test_system": "Candida albicans", "test": "Antifungal activity against Candida albicans assessed as fungal growth inhibition", "type": "functional"}, "Aspergillus niger [14]": {"test_system": "Aspergillus niger", "test": "Antifungal activity against Aspergillus niger", "type": "functional"}, "Rhizoctonia solani [15]": {"test_system": "Rhizoctonia solani", "test": "Antifungal activity against Rhizoctonia solani", "type": "functional"}, "Botrytis cinerea [16]": {"test_system": "Botrytis cinerea", "test": "Antifungal activity against Botrytis cinerea", "type": "functional"}, "Colletotrichum acutatum [17]": {"test_system": "Colletotrichum acutatum", "test": "Antifungal activity against Colletotrichum acutatum", "type": "functional"}, "[18]": {"test_system": "Colletotrichum gloeosporioides", "test": "Antifungal activity against Colletotrichum gloeosporioides", "type": "functional"}, "Saccharomyces cerevisiae [19]": {"test_system": "Saccharomyces cerevisiae", "test": "Antifungal activity against Saccharomyces cerevisiae", "type": "functional"}}, "note": "Where a SMILES comes first, the peptide text is derived from it. [ ]: non-standard residue; d: D form. The star is where a group is joined. Tridecanoyl(3R-OH,11-Me) = CCC(C)CCCCCCC[C@@H](O)CC(=O)*; X2 = CCC(C)CC(C)CCCC[C@@H](O)CC(=O)*; X3 = CCC(C)CCCCCCCC[C@@H](O)CC(=O)*", "data": [{"smiles": "CC(C)C[C@@H](C)[C@@H](O)[C@@H](C)C(=O)N[C@H](C)C(=O)N[C@@H](CCCNC(=N)N)[C@@H](O)[C@@H](O)C(=O)N[C@H](C(=O)N[C@@H](C(=O)N[C@@H](C(=O)N[C@H](CCCNC(=N)N)C(=O)O)[C@@H](C)O)[C@@H](C)O)[C@@H](C)[C@@H](C)C(N)=O", "values": [{"measurement": "MIC", "setting": "Candida albicans [1]", "result": 0.1, "unit": "mg/L"}]}, {"smiles": "CCCCC[C@@H]1CC(=O)N[C@@H](CC(C)C)C(=O)N[C@H](Cc2ccccc2)C(=O)N[C@@H](CC(C)C)C(=O)N[C@@H](Cc2ccccc2)C(=O)O1", "values": [{"measurement": "IC50", "setting": "[2]", "result": 3.74, "unit": "mg/L"}, {"measurement": "IC50", "setting": "[3]", "result": 0.46, "unit": "mg/L"}]}, {"smiles": "CCC(C)CCCCCCCC[C@@H](O)CC(=O)N[C@@H](CCC(=O)OC)C(=O)N[C@@H](CC(C)C)C(=O)N[C@@H](CC(C)C)C(=O)N[C@@H](CC(C)C)C(=O)O", "note": "(stereo partly specified) (X3-E(OMe)LLL-OH)", "values": [{"measurement": "MIC", "setting": "Rhizoctonia solani [4]", "result": 0.01, "unit": "mg/L"}, {"measurement": "MIC", "setting": "Phytophthora capsici", "result": 0.01, "unit": "mg/L"}, {"measurement": "MIC", "setting": "Botrytis cinerea [5]", "result": 0.01, "unit": "mg/L"}, {"measurement": "MIC", "setting": "Colletotrichum acutatum [6]", "result": 0.01, "unit": "mg/L"}]}, {"smiles": "CCC(C)CC(C)CCCC[C@@H](O)CC(=O)N[C@@H](CC(C)C)C(=O)N[C@@H](CCC(=O)O)C(=O)N[C@@H](CC(C)C)C(=O)N[C@@H](CC(C)C)C(=O)O", "note": "(stereo partly specified) (X2-LELL-OH)", "values": [{"measurement": "MIC", "setting": "Rhizoctonia solani [4]", "result": 0.01, "unit": "mg/L"}, {"measurement": "MIC", "setting": "Phytophthora capsici", "result": 0.01, "unit": "mg/L"}, {"measurement": "MIC", "setting": "Botrytis cinerea [5]", "result": 0.01, "unit": "mg/L"}, {"measurement": "MIC", "setting": "Colletotrichum acutatum [6]", "result": 0.01, "unit": "mg/L"}]}, {"smiles": "C[C@@H]1CCC/C=C/C=C/[C@H](O)C[C@@H](O)C/C=C\\C=C\\[C@@H](OC(=O)CCC(=O)O[C@H]2O[C@@H](CO)[C@H](O)[C@@H](O)[C@@H]2O)C/C=C/C=C\\C(=O)O1", "values": [{"measurement": "MIC", "setting": "Aspergillus niger [7]", "result": 0.02, "unit": "mg/L"}, {"measurement": "MIC", "setting": "Botrytis cinerea [8]", "result": 0.02, "unit": "mg/L"}, {"measurement": "MIC", "setting": "Colletotrichum acutatum [9]", "result": 0.02, "unit": "mg/L"}, {"measurement": "MIC", "setting": "Rhizoctonia solani [10]", "result": 0.02, "unit": "mg/L"}, {"measurement": "MIC", "setting": "Candida albicans [11]", "result": 0.02, "unit": "mg/L"}, {"measurement": "MIC", "setting": "Saccharomyces cerevisiae [12]", "result": 0.02, "unit": "mg/L"}]}, {"smiles": "CCCC[C@H](CC)C1NC(=O)c2ccccc2N1", "note": "(stereo partly specified)", "values": [{"measurement": "MIC", "setting": "Candida albicans [13]", "result": 0.62, "unit": "mg/L"}]}, {"smiles": "C[C@@H]1NC(=O)[C@@H](Cc2ccccc2)NC(=O)[C@@H](CO)NC(=O)c2ccccc2NC(=O)/C(=C\\c2c[nH]c3ccccc23)NC(=O)[C@H]([C@@H](C)O)NC1=O", "values": [{"measurement": "MIC", "setting": "Candida albicans [1]", "result": 2.48, "unit": "mg/L"}]}, {"smiles": "C[C@@H]1CCC/C=C/C=C/[C@H](O)C[C@@H](O)C[C@@H]2O[C@@H]2/C=C/[C@@H](O)C/C=C/C=C\\C(=O)O1", "note": "[GAGEOMACROLACTIN 1]", "values": [{"measurement": "MIC", "setting": "Aspergillus niger [7]", "result": 0.02, "unit": "mg/L"}, {"measurement": "MIC", "setting": "Botrytis cinerea [8]", "result": 0.02, "unit": "mg/L"}, {"measurement": "MIC", "setting": "Colletotrichum acutatum [9]", "result": 0.02, "unit": "mg/L"}, {"measurement": "MIC", "setting": "Rhizoctonia solani [10]", "result": 0.02, "unit": "mg/L"}, {"measurement": "MIC", "setting": "Candida albicans [11]", "result": 0.02, "unit": "mg/L"}, {"measurement": "MIC", "setting": "Saccharomyces cerevisiae [12]", "result": 0.02, "unit": "mg/L"}]}, {"smiles": "CC[C@H](CCCCCCCCCCCCC(=O)N[C@@H](C)C(=O)O)O[C@@H]1O[C@H](COC(=O)CCC(=O)O)[C@@H](O)[C@H](O)[C@H]1O", "values": [{"measurement": "MIC", "setting": "Aspergillus niger [14]", "result": 0.02, "unit": "mg/L"}, {"measurement": "MIC", "setting": "Rhizoctonia solani [15]", "result": 0.02, "unit": "mg/L"}, {"measurement": "MIC", "setting": "Botrytis cinerea [16]", "result": 0.02, "unit": "mg/L"}, {"measurement": "MIC", "setting": "Colletotrichum acutatum [17]", "result": 0.02, "unit": "mg/L"}, {"measurement": "MIC", "setting": "Candida albicans [1]", "result": 0.02, "unit": "mg/L"}]}, {"smiles": "CC(=O)O[C@@H]1C[C@H](C)[C@@]23CC=C(C)[C@@H](C2)C[C@@](C)(O)[C@@H]13", "values": [{"measurement": "MIC", "setting": "[18]", "result": 0.125, "unit": "mg/L"}]}, {"smiles": "CCC/C=C\\c1ccccc1/C=C/C(=O)N[C@H]1C(=O)N(C)/C(=C/c2ccc(O)cc2)C(=O)N[C@@H](CC(C)C)C(=O)N[C@H](Cc2ccccc2)C(=O)N[C@@H]([C@H](C)O)C(=O)N[C@@H](CC(N)=O)C(=O)N[C@@H](CO)C(=O)O[C@H](C)[C@@H](NC(=O)C/C=C2/C=CNC[C@H]2/C=C\\CCC)C(=O)N(C)/C(=C/c2ccc(O)cc2)C(=O)N[C@@H](CC(C)C)C(=O)N[C@H](Cc2ccccc2)C(=O)N[C@@H]([C@H](C)O)C(=O)N[C@@H](CC(N)=O)C(=O)N[C@@H](CO)C(=O)O[C@@H]1C", "values": [{"measurement": "IC50", "setting": "Candida albicans [1]", "result": 4.14, "unit": "mg/L"}]}, {"smiles": "C[C@@H]1CCC/C=C/C=C/[C@H](O)C[C@@H](O)C/C=C\\C=C\\[C@@H](O[C@@H]2O[C@@H](CO)[C@H](O)[C@@H](O)[C@@H]2O)C/C=C/C=C\\C(=O)O1", "values": [{"measurement": "MIC", "setting": "Aspergillus niger [7]", "result": 0.02, "unit": "mg/L"}, {"measurement": "MIC", "setting": "Botrytis cinerea [8]", "result": 0.02, "unit": "mg/L"}, {"measurement": "MIC", "setting": "Colletotrichum acutatum [9]", "result": 0.02, "unit": "mg/L"}, {"measurement": "MIC", "setting": "Rhizoctonia solani [10]", "result": 0.02, "unit": "mg/L"}, {"measurement": "MIC", "setting": "Candida albicans [11]", "result": 0.02, "unit": "mg/L"}, {"measurement": "MIC", "setting": "Saccharomyces cerevisiae [12]", "result": 0.02, "unit": "mg/L"}]}, {"smiles": "CC(C)C[C@H](NC(=O)[C@@H](CCCNC(=N)N)NC(=O)[C@H](NC(=O)[C@H](NC(=O)[C@@H](NC(=O)[C@H](O)[C@H](O)[C@H](CCCNC(=N)N)NC(=O)[C@@H](C)NC(=O)[C@H](C)[C@H](O)[C@H](C)CC(C)C)[C@@H](C)[C@@H](C)C(N)=O)[C@@H](C)O)[C@@H](C)O)C(=O)N(C)[C@@H](CCC(N)=O)C(=O)O", "values": [{"measurement": "MIC", "setting": "Candida albicans [1]", "result": 0.1, "unit": "mg/L"}]}, {"smiles": "CCCC[C@H](CC)c1nc2ccccc2c(=O)[nH]1", "values": [{"measurement": "MIC", "setting": "Candida albicans [13]", "result": 0.62, "unit": "mg/L"}]}, {"smiles": "C/C=C(\\NC(=O)[C@@H](NC(=O)[C@H](O)[C@H](O)[C@H](CCCNC(=N)N)NC(=O)[C@@H](C)NC(=O)[C@H](C)[C@H](O)[C@H](C)CC(C)C)[C@@H](C)[C@@H](C)C(N)=O)C(=O)N[C@@H](C(=O)N[C@H](CCCNC(=N)N)C(=O)O)[C@@H](C)O", "values": [{"measurement": "MIC", "setting": "Candida albicans [1]", "result": 0.1, "unit": "mg/L"}]}, {"smiles": "CCCCCCCCCCCC(=O)N(CCO)CCO", "values": [{"measurement": "MIC", "setting": "Saccharomyces cerevisiae [19]", "result": 0.22, "unit": "mg/L"}]}, {"smiles": "CC1CCC/C=C/[C@@H]2O[C@@H](C/C=C\\C=C\\[C@H](O[C@@H]3O[C@H](CO)[C@@H](O)[C@H](O)[C@H]3O)C/C=C/C=C\\C(=O)O1)C[C@@H](O)[C@H]2O", "note": "(stereo partly specified)", "values": [{"measurement": "MIC", "setting": "Saccharomyces cerevisiae [19]", "result": 0.22, "unit": "mg/L"}]}, {"smiles": "CCC(C)CCCCCCC[C@@H](O)CC(=O)N[C@@H](CCC(=O)O)C(=O)N[C@@H](CC(C)C)C(=O)N[C@@H](CC(C)C)C(=O)N[C@@H](C(=O)N[C@@H](CC(=O)O)C(=O)N[C@@H](CC(C)C)C(=O)N[C@@H](CC(C)C)C(=O)O)C(C)C", "note": "(stereo partly drawn) ({Tridecanoyl(3R-OH,11-Me)}-ELL[dV]DLL-OH)", "values": [{"measurement": "MIC", "setting": "Rhizoctonia solani [15]", "result": 4, "unit": "mg/L"}, {"measurement": "MIC", "setting": "Botrytis cinerea [16]", "result": 4, "unit": "mg/L"}]}, {"smiles": "C=C(CC[C@@H](C)[C@H]1CC[C@H]2C3=C(CC[C@]12C)[C@@]1(C)CC[C@H](O)C[C@@H]1C(=O)O3)C(C)C", "values": [{"measurement": "MIC", "setting": "Candida albicans [1]", "result": 0.79, "unit": "mg/L"}]}]}
